Experiments:
Format in all cases: in vivo, human
[1] = test system: panel of 4 trained sensory evaluators; assay: Taste and spit assay, descriptive taste impression versus base samples, panel of 4 trained sensory evaluators (Examples 3 to 31); details: acesulfame K 350 wppm
Method: (§1) All tests were conducted under controlled and standardized conditions.
(§2) The samples were prepared by a trained laboratory assistant.
35 ml of the samples were served at room temperature in clear plastic cups.
The following samples comprising a composition of the invention were tested for their ability to improve the taste of artificial sweeteners.
All samples were tested in duplicate and evaluated at least 3 different concentrations in comparison to 3 base samples (samples 1 to 3).
The panelists were asked to evaluate and to describe the taste impression of the samples 4 to 13 containing a sweetener composition comprising acesulfame potassium, sucralose and a composition of the invention, e.g. bitter aftertaste, creaminess, fullness and character of the sweeteners in each case in comparison to the base samples 1 to 3.
The results of the taste and spit assay are based in each case on a qualitative evaluation of the differences between the samples.

panelists [2] = assay: Naringin at non-detectable concentration tested in acesulfame K and acesulfame K/sucralose solutions (Example 34); details: naringin 1.6 wppm (not detectable) in acesulfame K (350 ppm) solution and in acesulfame K (350 wppm)/sucralose (80 wppm) solution; all panelists
From the text: The method further comprises the step of determining whether the at least one flavoring, when present in the sweetener composition at or below the flavor threshold level, is capable of modifying, masking, reducing and/or suppressing the unpleasant off-taste of the sweetener/sweetness enhancer in the sweetener composition. This determination may be made by employing suitable methods known in the art. For example the determination may be made by utilizing a taster or a taste panel. The taster may sample the prepared sweetener composition and make a determination as to whether the off-taste has been modified, masked, reduced, and/or suppressed. If so, then the particular flavoring is capable of modifying, masking, reducing, and/or suppressing unpleasant off-tastes. Preferably, the flavor of the flavoring is not detectable, e.g., by taste, in the sweetener composition, the sweetness enhancer composition, and/or the consumable product composition.
Then, naringin was tested at this concentration in an aceslfame K (350 ppm) solution and in an acesulfame K (350 wppm)/sucralose (80 wppm) solution.

panelists [3] = assay: Dilution of naringin in water until its taste is no longer detectable (Example 34); details: diluted in water
From the text: The method comprises the step of selecting at least one flavoring. The flavorings may be as discussed herein. The method may further comprise the step of diluting the at least one flavoring with a diluent to form a diluted composition to determine a flavor threshold level at which the flavor of the flavoring is not detectable, e.g., by taste, in the diluted composition. In order to make this determination, the diluted composition may be sampled, e.g., tasted, at various stages of dilution. As the diluted composition becomes more dilute, the flavor of the flavorant will become less recognizable or identifiable. The flavor threshold level is the point at which the flavor of the flavoring is no longer recognized or identified by a taster or taste panel. The method further comprises the step of adding at least one flavoring to a sweetener and/or sweetness enhancer to form a sweetener composition. The sweeteners and/or sweetness enhancers are discussed above. The sweeteners and/or sweetness enhancers may have an unpleasant off-taste associated therewith, as discussed above. Preferably, the flavoring is added to the sweetener and/or the sweetness enhancer at a level at or below the flavor threshold level.
Naringin was diluted in water until the diluted solution reached a concentration of 1.6 wppm. At this concentration, its taste was no longer detectable in water.

[4] = test system: panel of 4 trained sensory evaluators; assay: Taste and spit assay with regard to sweetness in the aftertaste, panel of 4 trained sensory evaluators (Example 33); details: 35 ml at 6.0-8.0 °C; aftertaste after 2 minutes; all 4 panelists; qualitative
Method: as §1, §2
(§3) The panel used the sweetness scale anchored by three concentrations of sucrose:
(§4) Sweetness was assessed with the 1st sip (max. 30 ml, min of 15 ml) and scored in the aftertaste (after 2 minutes).
(§5) All samples were tested in duplicate.
The samples with the same composition as in Example 1 have been assessed: […]

[5] = test system: panel of 11 trained sensory evaluators; assay: Taste and spit assay with regard to sweetness in the aftertaste, panel of 11 trained sensory evaluators (Example 2); details: aqueous samples; 35 ml at 6.0-8.0 °C; aftertaste after 2 minutes; 11 panelists; qualitative, FIG. 2
Method: Air was constantly exchanged.
as §2, §3, §4, §5

[6] = composition with amino acids: benzaldehyde 0.02 wppm in sample 13 (sucralose 75 wppm), quinine 0.01 wppm in sample 32 (sucralose 80 wppm)
[7] = composition without amino acids: benzaldehyde 0.02 wppm in sample 12, quinine 0.01 wppm in sample 31, sucralose 80 wppm

O=Cc1ccccc1 [Benzaldehyde, benzaldehyde]
further effect added to the composition by the substance used below its threshold [1, 6]: did not add any further effect to the composition of the invention | further effect added to the composition by the substance used below its threshold [1, 7]: did not add any further effect to the composition of the invention

C[C@@H]1O[C@@H](O[C@H]2[C@H](Oc3cc(O)c4c(c3)O[C@H](c3ccc(O)cc3)CC4=O)O[C@H](CO)[C@@H](O)[C@@H]2O)[C@H](O)[C@H](O)[C@H]1O [Naringin]
effect on the bitter aftertaste of acesulfame K (panelists [2]): improve the bitter aftertaste of acesulfame K | concentration at which its taste was no longer detectable in water (panelists [3]): 1.6 wppm

C=C[C@H]1C[N@@]2CC[C@H]1C[C@H]2[C@H](O)c1ccnc2ccc(OC)cc12 [Quinine, quinine]
further effect added to the composition by the substance used below its threshold [1, 6]: does not add anything to the effects of the composition | further effect added to the composition by the substance used below its threshold [1, 7]: does not add anything to the effects of the composition

delta-undecalactone
taste contribution of the lactone to the total composition ([1]; delta-undecalactone 0.0388 wppm in sample 14 with naringin, 4-methoxy salicylaldehyde, syringaldehyde, whiskey lactone, sucralose 80 wppm, all panelists): not being too volatile and as adding a creamy taste, and as improving the total composition

saccharose [Sample 1]
sweetness in the aftertaste [4]: less sweet in the aftertaste compared to acesulfame potassium and sucralose | sweetness in the aftertaste [5]: less sweet in the aftertaste than acesulfame potassium and sucralose

Source: patent US20130136839A1, “Taste-Masking Compositions, Sweetener Compositions and Consumable Product Compositions Containing the Same” (Nutrinova Nutrition Specialties & Food Ingredients GmbH, priority 2011, published 2013)
